According to US7582667B2, “Dihydrospiro[dibenzo[a,d][7]annulene-5,4′-imidazol] compounds for the inhibition of beta-secretase” (Wyeth, priority 2006, dated 2009):

Legend:
[1] = target: human BACE1 (Homo sapiens, UniProt P56817); test: Fluorescent kinetic assay, BACE-1 binding affinity (peptide substrate WABC-6 cleavage); assay type: biochemical; settings: 10 nM enzyme, 25 μM substrate WABC-6, Na-Acetate pH 4.5, room temperature
Description: Evaluation of BACE-1 Binding Affinity of Test Compounds
Fluorescent Kinetic Assay
Final Assay Conditions: 10 nM human BACE1 (or 10 nM Murine BACE1), 25 μM substrate (WABC-6, MW 1549.6, from AnaSpec), Buffer: 50 mM Na-Acetate, pH 4.5, 0.05% CHAPS, 25% PBS, room temperature. Na-Acetate was from Aldrich, Cat. #24, 124-5, CHAPS was from Research Organics, Cat. #1304C 1X, PBS was from Mediatech (Cellgro), Cat#21-031-CV, peptide substrate Abz[…]pa was from AnaSpec, Peptide Name: WABC-6 Determination of stock substrate (Abz[…]pa) concentration: ˜25 mM stock solution is made in DMSO using the peptide weight and MW, and diluted to ˜25 μM (1:1000) in 1×PBS. Concentration is determined by absorbance at 354 nm using an extinction coefficient ε of 18172 M^−1cm^−1, the concentration of stock substrate is corrected, and the substrate stock stored in small aliquots in −80° C. […] Determination of Stock Enzyme Concentration: the stock concentration of each enzyme is determined by absorbance at 280 nm using ε of 64150 M^−1cm^−1 for hBACE1 and MuBACE1 in 6 M Guanidinium Hydrochloride (from Research Organics, Cat. # 5134G-2), pH ˜6. The extinction coefficient ε^280 nm for each enzyme was calculated based on known amino acid composition and published extinction coefficients for Trp ([…]) and Tyr ([…]) residues (Anal. Biochem. 182, 319-326). Dilution and mixing steps: total reaction volume: 100 μL
2× inhibitor dilutions in buffer A (66.7 mM Na-Acetate, pH 4.5, 0.0667% CHAPS) were prepared,
4× enzyme dilution in buffer A (66.7 mM Na-Acetate, pH 4.5, 0.0667% CHAPS) were prepared,
100 μM substrate dilution in 1× PBS was prepared, and
50 μL 2× Inhibitor, 25 μL 100 μM substrate are added to each well of 96-well plate (from DYNEX Technologies, VWR #: 11311-046), immediately followed by 25 μL 4× enzyme (added to the inhibitor and substrate mix), and the fluorescence readings are initiated.
Fluorescence Readings: Readings at λex 320 nm and λem 420 nm are taken every 40 sec for 30 min at room temperature and the linear slope for substrate cleavage rate (vi) determined.
Calculation of % Inhibition: % Inhibition=100*(1−vi/v0) • vi: substrate cleavage rate in the presence of inhibitor • v0: substrate cleavage rate in the absence of inhibitor • IC50 Determination: % Inhibition=((B*IC50^n)+(100*I0^n))/(IC50^n+I0^n) (Model #39 from LSW Tool Bar in Excel where B is the % inhibition from the enzyme control, which should be close to 0.) % Inhibition is plotted vs. Inhibitor Concentration (I0) and the data fit to the above equation to obtain IC50 value and Hill number (n) for each compound.

human BACE1, sequence (P56817 46-501): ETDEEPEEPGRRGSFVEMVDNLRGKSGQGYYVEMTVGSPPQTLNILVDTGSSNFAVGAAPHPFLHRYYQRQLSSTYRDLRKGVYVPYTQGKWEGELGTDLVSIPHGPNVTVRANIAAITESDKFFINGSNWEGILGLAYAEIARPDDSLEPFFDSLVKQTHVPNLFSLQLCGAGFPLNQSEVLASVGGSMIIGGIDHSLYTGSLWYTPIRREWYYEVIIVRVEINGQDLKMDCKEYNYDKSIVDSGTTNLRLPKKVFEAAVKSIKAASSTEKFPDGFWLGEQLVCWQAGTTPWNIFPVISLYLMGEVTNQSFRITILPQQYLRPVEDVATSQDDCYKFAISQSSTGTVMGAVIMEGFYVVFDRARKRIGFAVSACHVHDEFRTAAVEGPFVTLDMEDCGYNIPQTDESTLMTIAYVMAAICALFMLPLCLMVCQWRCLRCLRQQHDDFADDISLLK

| Compound | IC50 [1] | melting point |
| --- | --- | --- |
| COc1ccc2c(c1C)CCc1ccc(-c3cccnc3)cc1C21N=C(N)N(C)C1=O (stereo not shown) [Example 3, 2′-Amino-2-methoxy-1,1′-dimethyl-7-pyridin-3-yl-10,11-dihydrospiro[dibenzo[a,d][7]annulene-5,4′-imidazol]-5′(1′H)-one] | 0.077 µM | 235 to 239 °C |
| COc1ccc2c(c1C)CCc1ccc(-c3cccnc3F)cc1C21N=C(N)N(C)C1=O (stereo not shown) [Example 4, 2′-amino-7-(2-fluoropyridin-3-yl)-2-methoxy-1,1′-dimethyl-10,11-dihydrospiro[dibenzo[a,d][7]annulene-5,4′-imidazol]-5′(1′H)-one] | 0.063 µM | 153 to 155 °C |
| COc1ccc2c(c1C)CCc1ccc(-c3cc(F)ccc3F)cc1C21N=C(N)N(C)C1=O (stereo not shown) [Example 7, 2′-amino-7-(2,5-difluorophenyl)-2-methoxy-1,1′-dimethyl-10,11-dihydrospiro[dibenzo[a,d][7]annulene-5,4′-imidazol]-5′(1′H)-one] | 0.25 µM | 155 to 195 °C |
| COc1ccc2c(c1C)CCc1ccc(-c3cccc(C#N)c3)cc1C21N=C(N)N(C)C1=O (stereo not shown) [Example 8, 3-(2′-amino-8-methoxy-1′,9-dimethyl-5′-oxo-1′,5′, 10,11-tetrahydrospiro[dibenzo[a,d][7]annulene-5,4′-imidazol]-3-yl)benzonitrile] | 0.235 µM | 269 to 280 °C |

Continued, values first:

| IC50 [1] | melting point | Compound |
| --- | --- | --- |
| 0.108 µM |  | 2′-amino-7-(6-fluoropyridin-3-yl)-2-methoxy-1,1′-dimethyl-10,11-dihydrospiro[dibenzo[a,d][7]annulene-5,4′-imidazol]-5′(1′H)-one [Example 6] |
| 0.138 µM |  | COc1cccc(-c2ccc3c(c2)C2(N=C(N)N(C)C2=O)c2ccc(OC)c(C)c2CC3)c1 (stereo not shown) [Example 9, 2′-amino-2-methoxy-7-(3-methoxyphenyl)-1,1′-dimethyl-10,11-dihydrospiro[dibenzo[a,d][7]annulene-5,4′-imidazol]-5′(1′H)-one] |
| 0.18 µM |  | COc1ccc2c(c1)CCc1ccc(-c3ccccc3)cc1C21N=C(N)N(C)C1=O (stereo not shown) [Example 12, 2′-Amino-2-methoxy-1′-methyl-7-phenyl-10,11-dihydrospiro[dibenzo[a,d][7]annulene-5,4′-imidazol]-5′(1′H)-one] |
| 0.376 µM | 245 to 249 °C | COc1ccc2c(c1C)CCc1ccc(-c3cc(F)cc(F)c3)cc1C21N=C(N)N(C)C1=O (stereo not shown) [Example 10, 2′-amino-7-(3,5-difluorophenyl)-2-methoxy-1,1′-dimethyl-10,11-dihydrospiro[dibenzo[a,d][7]annulene-5,4′-imidazol]-5′(1′H)-one] |
